Experimental data: patent US9409905B2, “Antibacterial compounds and methods for use” (PTC THERAPEUTICS, INC., priority 2011, dated 2016)
Values after ≈ are worked out from the molar mass of the structure shown.

Columns and labels:
E. coli LZ3111 = assay: Antibacterial activity, MIC, quinolone resistant strain (Table 2); assay type: cell-based; conditions: Escherichia coli, LZ3111, read-out: MIC LZ3111
Method in brief: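 Strain carries mutations conferring high-level quinolone resistance; tested by microbroth dilution, MIC recorded in μg/mL as lowest concentration preventing visible growth.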

E. coli 25922 = assay: Antibacterial activity, microbroth dilution MIC (Table 1); assay type: cell-based, Escherichia coli; conditions: Escherichia coli; microbroth dilution; control Gram-negative E. coli 25922 strain; read-out: MIC, 25922
Method in brief: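 Growth inhibition by microbroth dilution. MIC = lowest μg/mL with no visible growth. Strain 25922 is the control Gram-negative; BAS849 is hypersensitive.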

[1] = tested on: Staphylococcus aureus (S. aureus) 29213; assay: as above; assay type: cell-based; conditions: microbroth dilution, Gram-positive S. aureus 29213, read-out: MIC, 29213
Method in brief: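 Microbroth dilution was used. MIC, in μg/mL, is the lowest drug concentration preventing macroscopically visible growth under the test conditions.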

[2] = tested on: Escherichia coli (E. coli) BAS849; assay: as above; assay type: cell-based; conditions: microbroth dilution, super sensitive Gram-negative E. coli BAS849, read-out: MIC, BAS849
Method in brief: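 In a microbroth dilution test, the minimum inhibitory concentration was defined as the lowest compound level preventing growth seen by eye, and was given in μg/mL.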

SMILES | MIC (E. coli LZ3111) | MIC (E. coli 25922) | MIC [1] | MIC [2]
CCc1c(-c2ccc3c(c2)cc(CN(CC2CC2)C2CCCNC2)n3C)[nH]c(=O)c(C(=O)O)c1O (stereo not shown) [Cpd 265, 6-(2-(((cyclopropylmethyl)(piperidin-3-yl)amino)methyl)-1-methyl-1H-indol-5-yl)-5-ethyl-4-hydroxy-2-oxo-1,2-dihydropyridine-3-carboxylic acid] | 12.5 to 150 µg/mL (≈ 26.1 to 313 µM) | 12.5 to 150 µg/mL (≈ 26.1 to 313 µM) | 1 to 3.5 µg/mL (≈ 2.09 to 7.31 µM) | 1 to 3.5 µg/mL (≈ 2.09 to 7.31 µM)
CCc1c(-c2ccc3c(c2)cc(CN2CCC[C@H]2CNc2ccccc2)n3C)[nH]c(=O)c(C(=O)O)c1O [Cpd 266, (S)-5-ethyl-4-hydroxy-6-(1-methyl-2-((2-((phenylamino)methyl)pyrrolidin-1-yl)methyl)-1H-indol-5-yl)-2-oxo-1,2-dihydropyridine-3-carboxylic acid] | 12.5 to 150 µg/mL (≈ 25 to 300 µM) | 12.5 to 150 µg/mL (≈ 25 to 300 µM) | < 1 µg/mL | < 1 µg/mL
CCc1c(-c2ccc3c(c2)cc(CN2CCC(c4ccccn4)C2)n3C)[nH]c(=O)c(C(=O)O)c1O (stereo not shown) [Cpd 267, 5-ethyl-4-hydroxy-6-(1-methyl-2-((3-(pyridin-2-yl)pyrrolidin-1-yl)methyl)-1H-indol-5-yl)-2-oxo-1,2-dihydropyridine-3-carboxylic acid] | 12.5 to 150 µg/mL (≈ 26.5 to 317 µM) | 1 to 3.5 µg/mL (≈ 2.12 to 7.41 µM) | 3.5 to 12.5 µg/mL (≈ 7.41 to 26.5 µM) | < 1 µg/mL
CCc1c(-c2ccc3c(c2)cc(CN2CCC(c4ccncc4)C2)n3C)[nH]c(=O)c(C(=O)O)c1O (stereo not shown) [Cpd 268, 5-ethyl-4-hydroxy-6-(1-methyl-2-((3-(pyridin-4-yl)pyrrolidin-1-yl)methyl)-1H-indol-5-yl)-2-oxo-1,2-dihydropyridine-3-carboxylic acid] | 12.5 to 150 µg/mL (≈ 26.5 to 317 µM) | 3.5 to 12.5 µg/mL (≈ 7.41 to 26.5 µM) | 3.5 to 12.5 µg/mL (≈ 7.41 to 26.5 µM) | < 1 µg/mL
CCc1c(-c2ccc3c(c2)cc(CN2CC(C(=O)O)C2)n3C)[nH]c(=O)c(C(=O)O)c1O [Cpd 269, 6-(2-((3-carboxyazetidin-1-yl)methyl)-1-methyl-1H-indol-5-yl)-5-ethyl-4-hydroxy-2-oxo-1,2-dihydropyridine-3-carboxylic acid] | 12.5 to 150 µg/mL (≈ 29.4 to 353 µM) | 12.5 to 150 µg/mL (≈ 29.4 to 353 µM) | 12.5 to 150 µg/mL (≈ 29.4 to 353 µM) | 3.5 to 12.5 µg/mL (≈ 8.23 to 29.4 µM)
CCc1c(-c2ccc3c(c2)cc(CN2CC(C(=O)N(C)C)C2)n3C)[nH]c(=O)c(C(=O)O)c1O [Cpd 270, 6-(2-((3-(dimethylcarbamoyl)azetidin-1-yl)methyl)-1-methyl-1H-indol-5-yl)-5-ethyl-4-hydroxy-2-oxo-1,2-dihydropyridine-3-carboxylic acid] | 12.5 to 150 µg/mL (≈ 27.6 to 331 µM) | 3.5 to 12.5 µg/mL (≈ 7.73 to 27.6 µM) | 3.5 to 12.5 µg/mL (≈ 7.73 to 27.6 µM) | < 1 µg/mL
CCc1c(-c2ccc3c(c2)cc(CN[C@H](C)C(F)(F)F)n3C)[nH]c(=O)c(C(=O)O)c1O [Cpd 272, (R)-5-ethyl-4-hydroxy-6-(1-methyl-2-((1,1,1-trifluoropropan-2-ylamino)methyl)-1H-indol-5-yl)-2-oxo-1,2-dihydropyridine-3-carboxylic acid] | 12.5 to 150 µg/mL (≈ 28.6 to 343 µM) | 12.5 to 150 µg/mL (≈ 28.6 to 343 µM) | 1 to 3.5 µg/mL (≈ 2.29 to 8 µM) | < 1 µg/mL
CCc1c(-c2ccc3c(c2)cc(CN[C@@H](C)C(F)(F)F)n3C)[nH]c(=O)c(C(=O)O)c1O [Cpd 273, (S)-5-ethyl-4-hydroxy-6-(1-methyl-2-((1,1,1-trifluoropropan-2-ylamino)methyl)-1H-indol-5-yl)-2-oxo-1,2-dihydropyridine-3-carboxylic acid] | 12.5 to 150 µg/mL (≈ 28.6 to 343 µM) | 12.5 to 150 µg/mL (≈ 28.6 to 343 µM) | 3.5 to 12.5 µg/mL (≈ 8 to 28.6 µM) | < 1 µg/mL
CCc1c(-c2ccc3c(c2)cc(CN2C[C@H]4CCC[C@@H](N(C)Cc5ccccc5)[C@H]4C2)n3C)[nH]c(=O)c(C(=O)O)c1O [Cpd 280, 6-(2-(((3aR,4R,7aS)-4-(benzyl(methyl)amino)-1H-isoindol-2(3H,3aH,4H,5H,6H,7H,7aH)-yl)methyl)-1-methyl-1H-indol-5-yl)-5-ethyl-4-hydroxy-2-oxo-1,2-dihydropyridine-3-carboxylic acid] | 12.5 to 150 µg/mL (≈ 22 to 264 µM) | 12.5 to 150 µg/mL (≈ 22 to 264 µM) | 1 to 3.5 µg/mL (≈ 1.76 to 6.15 µM) | < 1 µg/mL
CCc1c(-c2ccc3c(c2)cc(CN2C[C@H]4CC[C@@H](N(Cc5ccccc5)Cc5ccccc5)[C@H]4C2)n3C)[nH]c(=O)c(C(=O)O)c1O [Cpd 281, 6-(2-(((3aR,4R,6aS)-4-(dibenzylamino)hexahydrocyclopenta[c]pyrrol-2(1H)-yl)methyl)-1-methyl-1H-indol-5-yl)-5-ethyl-4-hydroxy-2-oxo-1,2-dihydropyridine-3-carboxylic acid] | 12.5 to 150 µg/mL (≈ 19.8 to 238 µM) | 12.5 to 150 µg/mL (≈ 19.8 to 238 µM) | 12.5 to 150 µg/mL (≈ 19.8 to 238 µM) | 12.5 to 150 µg/mL (≈ 19.8 to 238 µM)
CCc1c(-c2ccc3c(c2)cc(CN2C[C@H]4CCC[C@@H](N(Cc5ccccc5)Cc5ccccc5)[C@H]4C2)n3C)[nH]c(=O)c(C(=O)O)c1O [Cpd 283, 6-(2-(((3aR,4R,7aS)-4-(dibenzylamino)-1H-isoindol-2(3H,3aH,4H,5H,6H,7H,7aH)-yl)methyl)-1-methyl-1H-indol-5-yl)-5-ethyl-4-hydroxy-2-oxo-1,2-dihydropyridine-3-carboxylic acid] | 12.5 to 150 µg/mL (≈ 19.4 to 233 µM) | 12.5 to 150 µg/mL (≈ 19.4 to 233 µM) | 12.5 to 150 µg/mL (≈ 19.4 to 233 µM) | 12.5 to 150 µg/mL (≈ 19.4 to 233 µM)
CCc1c(-c2ccc3c(c2)cc(CN2C[C@H]4C[C@@H](N(Cc5ccccc5)Cc5ccccc5)C[C@H]4C2)n3C)[nH]c(=O)c(C(=O)O)c1O [Cpd 286, 6-(2-(((3aR,5r,6aS)-5-(dibenzylamino)hexahydrocyclopenta[c]pyrrol-2(1H)-yl)methyl)-1-methyl-1H-indol-5-yl)-5-ethyl-4-hydroxy-2-oxo-1,2-dihydropyridine-3-carboxylic acid] | 12.5 to 150 µg/mL (≈ 19.8 to 238 µM) | 12.5 to 150 µg/mL (≈ 19.8 to 238 µM) | 12.5 to 150 µg/mL (≈ 19.8 to 238 µM) | 12.5 to 150 µg/mL (≈ 19.8 to 238 µM)
CCc1c(-c2ccc3c(c2)cc(CNCc2ccc(F)cc2)n3C)[nH]c(=O)c(C(=O)O)c1O [Cpd 292, 5-ethyl-6-(2-((4-fluorobenzylamino)methyl)-1-methyl-1H-indol-5-yl)-4-hydroxy-2-oxo-1,2-dihydropyridine-3-carboxylic acid] | 12.5 to 150 µg/mL (≈ 27.8 to 334 µM) | 1 to 3.5 µg/mL (≈ 2.22 to 7.79 µM) | 3.5 to 12.5 µg/mL (≈ 7.79 to 27.8 µM) | < 1 µg/mL
CCc1c(-c2ccc3c(c2)cc(CNCc2ccccc2OC)n3C)[nH]c(=O)c(C(=O)O)c1O [Cpd 293, 5-ethyl-4-hydroxy-6-(2-((2-methoxybenzylamino)methyl)-1-methyl-1H-indol-5-yl)-2-oxo-1,2-dihydropyridine-3-carboxylic acid] | 12.5 to 150 µg/mL (≈ 27.1 to 325 µM) | < 1 µg/mL | 3.5 to 12.5 µg/mL (≈ 7.58 to 27.1 µM) | < 1 µg/mL
CCc1c(-c2ccc3c(c2)cc(CNCc2cccc(C)c2)n3C)[nH]c(=O)c(C(=O)O)c1O [Cpd 294, 5-ethyl-4-hydroxy-6-(1-methyl-2-((3-methylbenzylamino)methyl)-1H-indol-5-yl)-2-oxo-1,2-dihydropyridine-3-carboxylic acid] | 12.5 to 150 µg/mL (≈ 28.1 to 337 µM) | < 1 µg/mL | 1 to 3.5 µg/mL (≈ 2.24 to 7.86 µM) | < 1 µg/mL
CCc1c(-c2ccc3c(c2)cc(CNCc2ccccc2C)n3C)[nH]c(=O)c(C(=O)O)c1O [Cpd 295, 5-ethyl-4-hydroxy-6-(1-methyl-2-((2-methylbenzylamino)methyl)-1H-indol-5-yl)-2-oxo-1,2-dihydropyridine-3-carboxylic acid] | 12.5 to 150 µg/mL (≈ 28.1 to 337 µM) | 3.5 to 12.5 µg/mL (≈ 7.86 to 28.1 µM) | 1 to 3.5 µg/mL (≈ 2.24 to 7.86 µM) | < 1 µg/mL
CCc1c(-c2ccc3c(c2)cc(CNCc2cccc(OC)c2)n3C)[nH]c(=O)c(C(=O)O)c1O [Cpd 296, 5-ethyl-4-hydroxy-6-(2-((3-methoxybenzylamino)methyl)-1-methyl-1H-indol-5-yl)-2-oxo-1,2-dihydropyridine-3-carboxylic acid] | 12.5 to 150 µg/mL (≈ 27.1 to 325 µM) | < 1 µg/mL | 3.5 to 12.5 µg/mL (≈ 7.58 to 27.1 µM) | < 1 µg/mL
CCc1c(-c2ccc3c(c2)cc(CNCc2ccc(C)cc2)n3C)[nH]c(=O)c(C(=O)O)c1O [Cpd 297, 5-ethyl-4-hydroxy-6-(1-methyl-2-((4-methylbenzylamino)methyl)-1H-indol-5-yl)-2-oxo-1,2-dihydropyridine-3-carboxylic acid] | 12.5 to 150 µg/mL (≈ 28.1 to 337 µM) | < 1 µg/mL | 1 to 3.5 µg/mL (≈ 2.24 to 7.86 µM) | < 1 µg/mL
CCc1c(-c2ccc3c(c2)cc(CNCc2cccc(F)c2)n3C)[nH]c(=O)c(C(=O)O)c1O [Cpd 298, 5-ethyl-6-(2-((3-fluorobenzylamino)methyl)-1-methyl-1H-indol-5-yl)-4-hydroxy-2-oxo-1,2-dihydropyridine-3-carboxylic acid] | 12.5 to 150 µg/mL (≈ 27.8 to 334 µM) | 1 to 3.5 µg/mL (≈ 2.22 to 7.79 µM) | 1 to 3.5 µg/mL (≈ 2.22 to 7.79 µM) | < 1 µg/mL
CCc1c(-c2ccc3c(c2)cc(CNCc2ccccc2F)n3C)[nH]c(=O)c(C(=O)O)c1O [Cpd 299, 5-ethyl-6-(2-((2-fluorobenzylamino)methyl)-1-methyl-1H-indol-5-yl)-4-hydroxy-2-oxo-1,2-dihydropyridine-3-carboxylic acid] | 12.5 to 150 µg/mL (≈ 27.8 to 334 µM) | 1 to 3.5 µg/mL (≈ 2.22 to 7.79 µM) | 1 to 3.5 µg/mL (≈ 2.22 to 7.79 µM) | < 1 µg/mL
CCc1c(-c2ccc3c(c2)cc(CN(C)CCOC)n3C)[nH]c(=O)c(C(=O)O)c1O [Cpd 300, 5-ethyl-4-hydroxy-6-(2-(((2-methoxyethyl)(methyl)amino)methyl)-1-methyl-1H-indol-5-yl)-2-oxo-1,2-dihydropyridine-3-carboxylic acid] | 12.5 to 150 µg/mL (≈ 30.2 to 363 µM) | 3.5 to 12.5 µg/mL (≈ 8.46 to 30.2 µM) | 12.5 to 150 µg/mL (≈ 30.2 to 363 µM) | < 1 µg/mL
CCc1c(-c2ccc3c(c2)cc(CNCC2CCCCCC2)n3C)[nH]c(=O)c(C(=O)O)c1O [Cpd 301, 6-(2-((cycloheptylmethylamino)methyl)-1-methyl-1H-indol-5-yl)-5-ethyl-4-hydroxy-2-oxo-1,2-dihydropyridine-3-carboxylic acid] | 12.5 to 150 µg/mL (≈ 27.7 to 332 µM) | 12.5 to 150 µg/mL (≈ 27.7 to 332 µM) | 3.5 to 12.5 µg/mL (≈ 7.75 to 27.7 µM) | < 1 µg/mL
